{"source": "ChEMBL document CHEMBL5465560", "about": "“Selectivity Literature for EUbOPEN Chemogenomic Library” (2024)", "key": {"[1]": {"molecular_target": "Casein kinase II subunit alpha' (Homo sapiens) (UniProt P19784)", "sequence (P19784 whole entry, looked up)": "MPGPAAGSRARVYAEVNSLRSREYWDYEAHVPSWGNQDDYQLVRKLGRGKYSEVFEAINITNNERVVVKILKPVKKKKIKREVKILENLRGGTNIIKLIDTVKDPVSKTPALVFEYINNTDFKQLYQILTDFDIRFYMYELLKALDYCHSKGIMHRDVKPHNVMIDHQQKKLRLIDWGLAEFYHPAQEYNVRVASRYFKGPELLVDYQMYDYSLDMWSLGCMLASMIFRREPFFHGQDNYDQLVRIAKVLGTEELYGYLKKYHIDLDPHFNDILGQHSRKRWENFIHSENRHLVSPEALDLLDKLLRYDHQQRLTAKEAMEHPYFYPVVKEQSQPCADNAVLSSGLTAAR", "assay": "Selectivity interaction (KinomeScan (DiscoverX)) EUB0000045b CSNK2A2"}, "[2]": {"molecular_target": "Fibroblast growth factor receptor 4 (Homo sapiens, UniProt P22455)", "sequence (P22455 22-802 limits assumed)": "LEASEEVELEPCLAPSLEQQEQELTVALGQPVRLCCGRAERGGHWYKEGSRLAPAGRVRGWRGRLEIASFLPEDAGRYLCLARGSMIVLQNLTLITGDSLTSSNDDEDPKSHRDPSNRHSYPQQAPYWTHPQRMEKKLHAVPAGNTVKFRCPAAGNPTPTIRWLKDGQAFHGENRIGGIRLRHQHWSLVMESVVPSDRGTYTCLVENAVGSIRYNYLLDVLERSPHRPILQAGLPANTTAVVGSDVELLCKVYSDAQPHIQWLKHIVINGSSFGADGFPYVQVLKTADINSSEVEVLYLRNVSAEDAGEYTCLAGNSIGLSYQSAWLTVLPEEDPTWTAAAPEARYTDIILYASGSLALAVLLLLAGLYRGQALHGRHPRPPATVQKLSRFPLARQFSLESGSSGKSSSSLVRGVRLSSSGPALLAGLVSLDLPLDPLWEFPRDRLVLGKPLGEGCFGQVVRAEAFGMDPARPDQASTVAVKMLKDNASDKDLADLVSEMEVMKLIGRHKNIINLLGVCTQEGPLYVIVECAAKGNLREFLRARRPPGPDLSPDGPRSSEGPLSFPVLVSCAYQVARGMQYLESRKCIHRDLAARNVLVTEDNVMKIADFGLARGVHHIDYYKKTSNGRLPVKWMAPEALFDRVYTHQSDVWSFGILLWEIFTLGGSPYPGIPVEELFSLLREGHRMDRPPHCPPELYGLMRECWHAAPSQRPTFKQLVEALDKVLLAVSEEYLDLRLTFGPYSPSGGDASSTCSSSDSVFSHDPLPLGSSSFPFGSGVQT", "assay": "Selectivity interaction (KinomeScan (DiscoverX)) EUB0000666a FGFR4", "conditions": "at 10 µM"}, "[3]": {"molecular_target": "T1, Serine/threonine-protein kinase BRSK1 (Homo sapiens) (UniProt Q8TDC3)", "T1 sequence (whole entry)": "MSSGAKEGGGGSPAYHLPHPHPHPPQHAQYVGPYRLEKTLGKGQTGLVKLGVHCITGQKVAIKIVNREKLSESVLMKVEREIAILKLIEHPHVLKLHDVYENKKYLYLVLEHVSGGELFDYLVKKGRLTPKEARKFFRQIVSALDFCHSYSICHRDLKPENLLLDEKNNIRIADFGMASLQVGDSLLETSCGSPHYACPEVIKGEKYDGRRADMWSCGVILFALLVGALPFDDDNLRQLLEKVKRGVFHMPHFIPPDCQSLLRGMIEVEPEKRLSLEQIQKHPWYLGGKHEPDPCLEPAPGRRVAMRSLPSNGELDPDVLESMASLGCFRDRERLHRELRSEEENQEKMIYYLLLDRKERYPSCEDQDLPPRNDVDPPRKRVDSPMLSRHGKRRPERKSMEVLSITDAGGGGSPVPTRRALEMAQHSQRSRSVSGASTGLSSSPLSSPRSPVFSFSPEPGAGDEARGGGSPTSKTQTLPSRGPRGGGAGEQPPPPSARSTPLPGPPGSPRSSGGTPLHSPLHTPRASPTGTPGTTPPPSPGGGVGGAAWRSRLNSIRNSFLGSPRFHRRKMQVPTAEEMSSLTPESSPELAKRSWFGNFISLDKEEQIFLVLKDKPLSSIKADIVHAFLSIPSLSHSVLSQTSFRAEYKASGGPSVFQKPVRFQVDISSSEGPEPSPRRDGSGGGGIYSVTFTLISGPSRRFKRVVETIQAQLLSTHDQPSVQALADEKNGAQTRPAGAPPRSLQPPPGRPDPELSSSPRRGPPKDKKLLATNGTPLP", "assay": "Selectivity interaction (KinomeScan (DiscoverX)) EUB0001619a BRSK1", "conditions": "at 1 µM"}, "[4]": {"molecular_target": "Atypical kinase COQ8A, mitochondrial (Homo sapiens, UniProt Q8NI60)", "sequence (Q8NI60 163-647 limits assumed)": "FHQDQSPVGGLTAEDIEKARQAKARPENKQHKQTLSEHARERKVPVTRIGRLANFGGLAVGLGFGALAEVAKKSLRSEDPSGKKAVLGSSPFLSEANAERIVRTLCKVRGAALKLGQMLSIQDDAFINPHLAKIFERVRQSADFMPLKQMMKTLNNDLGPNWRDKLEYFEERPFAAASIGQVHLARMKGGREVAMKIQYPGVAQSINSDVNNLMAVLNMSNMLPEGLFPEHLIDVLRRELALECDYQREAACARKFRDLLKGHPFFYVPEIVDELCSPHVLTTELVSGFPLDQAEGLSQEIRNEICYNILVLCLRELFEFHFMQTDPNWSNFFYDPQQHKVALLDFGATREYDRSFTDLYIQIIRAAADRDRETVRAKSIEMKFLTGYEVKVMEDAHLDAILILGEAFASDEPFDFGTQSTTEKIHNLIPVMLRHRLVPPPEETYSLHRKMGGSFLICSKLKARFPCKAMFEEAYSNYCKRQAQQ", "assay": "Selectivity interaction (KinomeScan (DiscoverX)) EUB0000618a ADCK3", "conditions": "at 10 µM"}, "[5]": {"molecular_target": "T2, Tyrosine-protein kinase Mer (Homo sapiens) (UniProt Q12866)", "T2 sequence (whole entry)": "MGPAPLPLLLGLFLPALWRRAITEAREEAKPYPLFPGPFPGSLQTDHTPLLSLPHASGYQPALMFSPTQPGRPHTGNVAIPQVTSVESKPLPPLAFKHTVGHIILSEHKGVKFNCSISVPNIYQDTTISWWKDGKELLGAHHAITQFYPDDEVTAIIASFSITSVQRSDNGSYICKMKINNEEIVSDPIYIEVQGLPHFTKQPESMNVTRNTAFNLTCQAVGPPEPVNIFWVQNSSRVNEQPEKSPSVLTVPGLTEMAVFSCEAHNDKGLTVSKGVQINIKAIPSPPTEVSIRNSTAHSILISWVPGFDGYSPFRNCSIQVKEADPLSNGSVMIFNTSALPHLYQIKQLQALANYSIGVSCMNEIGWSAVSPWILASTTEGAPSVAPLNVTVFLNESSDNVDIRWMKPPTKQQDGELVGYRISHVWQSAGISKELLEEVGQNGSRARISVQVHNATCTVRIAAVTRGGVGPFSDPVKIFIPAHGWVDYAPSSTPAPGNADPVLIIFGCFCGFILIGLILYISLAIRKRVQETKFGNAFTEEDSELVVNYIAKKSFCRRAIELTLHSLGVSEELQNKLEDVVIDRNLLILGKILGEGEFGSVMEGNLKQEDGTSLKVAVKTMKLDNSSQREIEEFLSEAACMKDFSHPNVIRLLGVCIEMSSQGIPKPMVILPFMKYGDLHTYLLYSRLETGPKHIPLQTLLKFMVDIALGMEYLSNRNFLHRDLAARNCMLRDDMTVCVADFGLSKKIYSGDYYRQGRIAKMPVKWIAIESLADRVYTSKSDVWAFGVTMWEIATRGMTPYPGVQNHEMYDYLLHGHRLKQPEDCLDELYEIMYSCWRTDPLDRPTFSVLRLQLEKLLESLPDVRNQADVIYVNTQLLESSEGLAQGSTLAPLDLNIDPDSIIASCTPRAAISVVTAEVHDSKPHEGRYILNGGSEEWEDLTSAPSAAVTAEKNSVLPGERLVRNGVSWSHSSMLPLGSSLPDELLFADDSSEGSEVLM", "assay": "Selectivity interaction (KinomeScan (DiscoverX)) EUB0000655a MERTK", "conditions": "at 10 µM"}, "[6]": {"molecular_target": "T3, Ephrin type-A receptor 1 (Homo sapiens) (UniProt P21709)", "T3 sequence (whole entry)": "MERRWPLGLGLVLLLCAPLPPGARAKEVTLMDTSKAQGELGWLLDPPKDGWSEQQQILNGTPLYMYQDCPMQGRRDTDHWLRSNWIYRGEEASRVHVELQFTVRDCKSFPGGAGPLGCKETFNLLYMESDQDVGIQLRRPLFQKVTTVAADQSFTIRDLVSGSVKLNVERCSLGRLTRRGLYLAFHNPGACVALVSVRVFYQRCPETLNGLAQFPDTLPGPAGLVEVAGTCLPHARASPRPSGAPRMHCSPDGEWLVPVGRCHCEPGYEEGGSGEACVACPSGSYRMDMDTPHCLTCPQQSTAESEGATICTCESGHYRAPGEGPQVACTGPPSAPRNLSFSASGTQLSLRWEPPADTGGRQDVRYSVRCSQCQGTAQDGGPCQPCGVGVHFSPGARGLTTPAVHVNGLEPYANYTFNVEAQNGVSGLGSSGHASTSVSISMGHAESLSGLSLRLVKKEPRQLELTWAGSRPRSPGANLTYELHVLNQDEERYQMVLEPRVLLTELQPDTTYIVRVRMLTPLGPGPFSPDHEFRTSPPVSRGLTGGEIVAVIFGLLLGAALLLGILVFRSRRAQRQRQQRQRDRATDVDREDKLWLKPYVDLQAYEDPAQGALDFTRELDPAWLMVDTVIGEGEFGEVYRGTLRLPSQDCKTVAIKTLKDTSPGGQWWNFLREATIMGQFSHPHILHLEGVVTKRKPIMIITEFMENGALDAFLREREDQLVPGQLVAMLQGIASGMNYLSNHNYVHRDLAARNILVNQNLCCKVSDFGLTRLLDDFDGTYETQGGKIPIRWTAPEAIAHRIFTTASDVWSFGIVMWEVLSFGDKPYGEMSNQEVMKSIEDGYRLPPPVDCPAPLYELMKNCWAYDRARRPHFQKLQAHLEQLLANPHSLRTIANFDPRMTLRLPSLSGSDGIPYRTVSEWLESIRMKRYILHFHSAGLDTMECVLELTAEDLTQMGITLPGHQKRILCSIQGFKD", "assay": "Selectivity interaction (KinomeScan (DiscoverX)) EUB0000092b EPHA1", "conditions": "at 10 µM"}}, "data": [{"smiles": "C=CC(=O)Nc1cc(-n2c(=O)ccc3cnc4ccc(-c5ccc(NS(C)(=O)=O)cc5)cc4c32)ccc1C", "values": [{"measurement": "% of control", "setting": "[1]; at 1 µM", "result": 100, "unit": "%"}, {"measurement": "% of control", "setting": "[1]; at 10 µM", "result": 67, "unit": "%"}]}, {"smiles": "O=C(NOC[C@H](O)CO)c1ccc(F)c(F)c1Nc1ccc(I)cc1F", "values": [{"measurement": "% of control", "setting": "[2]", "result": 54, "unit": "%"}]}, {"smiles": "N#Cc1cccc(-c2c[nH]c3ncnc(N4CCOCC4)c23)c1", "values": [{"measurement": "% of control", "setting": "[3]", "result": 100, "unit": "%"}]}, {"smiles": "O[C@H]1CC[C@H](Nc2ncc3nc(Nc4c(F)cc(F)cc4F)n([C@H]4CCOC4)c3n2)CC1", "values": [{"measurement": "% of control", "setting": "[4]", "result": 35, "unit": "%"}]}, {"smiles": "CN(C)CCOc1ccc(-c2nc(-c3ccncc3)c(-c3ccc4c(c3)CC/C4=N\\O)[nH]2)cc1", "values": [{"measurement": "% of control", "setting": "[5]", "result": 87, "unit": "%"}]}, {"smiles": "CCC(=O)N1CCN(c2ccc(-n3c(=O)ccc4cnc5ccc(-c6cnc7ccccc7c6)cc5c43)cc2C(F)(F)F)CC1", "values": [{"measurement": "% of control", "setting": "[6]", "result": 62, "unit": "%"}]}]}
